This assay relates to non-responder CD4+ T cells. Put plainly: Multiplex PEA of cytokines released into culture medium by non-responder CD4+ T cells. The assay is classed as cell-based, human. As to the method: The proliferation of freshly isolated human PBMCs or CD4^+ T cells was evaluated with MTT (3-(4,5-Dimethylthiazol-2-yl)-2,5-Diphenyltetrazolium Bromide) assay (Ring et al., 2012). Cells were suspended in complete medium (RPMI 1640 supplemented with 2 mM glutamine, 25 mM HEPES, 10% heat inactivated fetal bovine serum, 100 U/ml penicillin, 10 mg/ml streptomycin, 5 mM R-mercaptoethanol) in a concentration 1 million cells per milliliter. The assay was performed in 96-well plates in duplicates or triplicates, where each well was pre-coated with 3 μg/ml anti-CD3 antibody for 3-5 h at 37° C. Each well was loaded with 100,000 cells. Drugs were added to the wells at the relevant concentrations. The plate was incubated for 68 h at 37° C. (95% O2, 5% CO2) and then, a media-soluble tetrazolium dye MTT was added to a final concentration of 1 mM after which the plate was incubated for additional 4 h. The plate was then centrifuged at 2,000 RPM for 10 min to pellet the insoluble purple formazan crystals. The supernatant culture media was collected, stored at −80° C. and used for analysis of cytokines using the multiplex proximity extension assay (PEA). The formazan crystal pellet was dissolved in DMSO and the plate was read within 10 min using a Multiskan MS plate reader (Labsystems) at 550 nm. The optical density value was used as the proliferation index value. Drugs were purchased from Sigma-Aldrich or Tocris (Bristol, UK).
Plasma samples, and culture media samples that were collected from plate wells at the end of the proliferation assay, were analyzed by multiplex PEA with an Olink Inflammation […] panel, targeting 92 proteins related to inflammation (Olink Proteomics, Uppsala, Sweden) as previously described (Edvinsson et al., 2017, Assarsson et al., 2014, Larsson et al., 2015, Larssen et al., 2017). Briefly, 1 μl of sample (plasma samples or cell culture media samples) or negative control was mixed with 3 μl probe solution containing a set of 92 paires DNA-oligonucleotide-conjugated antibodies. Upon recognition of a target protein by a pair of probes, the DNA oligonucletodies on the antibodies are brought in proximity and hybridize to each other, followed by enzymatic DNA polymerization to form a new DNA molecule. The newly formed DNA molecule is then amplified and quantified using a microfluidic real-time qPCR, BioMark™ HD (Fluidigm, South San Francisco, Calif., USA). The generated quantification cycle (Cq) values are normalized against spiked-in controls to convert Cq values to Normalized Protein eXpression (NPX) value on log2 scale. NPX is an arbitrary unit, which is positively correlated to protein concentration. These NPX data were then converted to linear data, using the formula 2^NPX, prior to further statistical analysis. Limit of detection (LOD) for each protein was defined as three standard deviations above the background. Proteins with levels below LOD were excluded from further data analysis.

The mark [1] stands for this setting: GABA 100 nM, non-responder CD4+ T cells, normalized to control.
[2] abbreviates: GABA 500 nM, non-responder CD4+ T cells, normalized to control.

The text below walks through data of patent US20210113586A1, “NEW USE AND METHODS OF MODULATING IMMUNE RESPONSES” (DIAMYD MEDICAL AB, priority 2018, published 2021).

As to `NCCCC(=O)O` [GABA, gamma-aminobutyric acid], under setting [1], the “IL-1 alpha in culture medium, % Mean” value came to 112.8% and the “MMP-1 in culture medium, % Mean” value is on record as 124.2%. Under setting [2], the “IL-5 in culture medium, % Mean” value amounted to 87.2%; the “PD-L1 in culture medium, % Mean” value was determined as 120.4%; the “TGF-alpha in culture medium, % Mean” value turned out to be 109.5%. Further, the “number of cytokines whose secretion was regulated” value (GABA 100 and 500 nM, at each concentration) is reported as “four”.
